# Laboratory results published in PMC9253268 (Frontiers in Immunology, 2022).
# Assays:
# RAW264.7 cells [1] = assay: LPS/ATP-induced pyroptosis in RAW264.7 cells (flow cytometry, FAM-FLICA, immunofluorescence, Western blotting, ELISA); assay type: cell-based, mouse
# Excerpt: (§1) Mouse macrophage cell line (RAW264.7 cells, Bio-Swamp, Wuhan, China) and fibroblast-like synoviocytes in patients with RA (MH7A cells, Riken cell bank, Ibaraki, Japan) at passage numbers four to eight were used in the current experiment validations.
# (§2) The concentration of DMSO was less than 1‰ of the solution for the in vitro experiment.
# Fluorescence images were visualized and photographed with a confocal microscope (Zeiss LSM 880, Carl Zeiss, Jena, Germany).
# The images were visualized and photographed with a confocal microscope (Zeiss LSM 880, Carl Zeiss, Jena, Germany) or an inverted fluorescence microscope (MF53, MSHOT, Guangzhou, China).
# (§3) To evaluate the therapeutic effects of two BACs from BHGZD on the regulation of the “immune-inflammation” system, the levels of cytokines, proteins, and LDH release in RAW264.7 and MH7A cellular supernatant, as well as the sera of AIA-M rats were determined using enzyme-linked immunosorbent assay (ELISA) to assess the integrity of membranes in accordance with the manufacturer’s guidelines.
# Raw264.7 cells were maintained in DMEM (Hyclone, Logan, UT, USA), supplemented
# 100μg/mL streptomycin and 2mM L-glutamine (TBD, Tianjin, China) in a humidified 5%
# CO2 incubator at the temperature of 37℃. The Raw264.7 cells at passage numbers four
# to eight were used in the current experiment validations.
# MH7A cells were cultured in sterile synoviocyte growth medium (Cell Applicatio ns, Inc.,
# L-glutamine (TBD, Tianjin, China) in a humidified 5% CO2 incubator at the temperature of
# 37℃. MH7A at passage numbers four to eight were used in the current experiment
# (§4) To induce a conventional NLRP3 inflammasome activation, Raw264.7cells was induced
# (§5) with 0.2μg/mL lipopolysaccharide [LPS, Escherichia coli (O111:B4), Sigma-Aldrich, St
# (§6) Louis, MO, USA] for 4h, followed with a 3mM ATP adenosine triphosphate (ATP disodium
# (§7) salt hydrate, Sigma-Aldrich, St Louis, MO, USA) for 1h of incubation at 37℃ with 5% CO2
# (§8) For MH7A cells LPS/ATP-induced pyrotosis, MH7A cells were induced with 1μg/mL LPS
# (§9) for 6h, followed with a 3mM ATP for 1h of incubation at 37℃ with 5% CO2 (11).
# MH7A cells = assay: LPS/ATP-induced pyroptosis in MH7A cells (TUNEL, immunofluorescence, Western blotting, ELISA); assay type: cell-based, human
# Excerpt: as §1
# The conventional NLRP3 inflammasome activation cellular model was induced by lipopolysaccharide [LPS, Escherichia coli (O111:B4), Sigma-Aldrich, St Louis, MO, USA] and adenosine triphosphate (ATP disodium salt hydrate, Sigma-Aldrich, St Louis, MO, USA) as in our previous study ([22]) ( Supplementary Materials Section 15 ).
# as §2
# The occurrence of pyroptosis in both MH7A cells and synovium tissues in AIA-M rats was determined by in situ TUNEL staining (TUNEL Andy Fluor™ 594 Apoptosis Detection Kit, ABP Biosciences, Wuhan, China) in accordance with the manufacturer’s protocol. Fluorescence images were visualized and photographed with inverted fluorescence microscopes (MF53, MSHOT, Guangzhou, China; Olympus, BX51, Tokyo, Japan).
# Double fluorescence staining was performed as described previously ([22]) ( Supplementary Materials Section 20 ). The images were visualized and photographed with a confocal microscope (Zeiss LSM 880, Carl Zeiss, Jena, Germany) or an inverted fluorescence microscope (MF53, MSHOT, Guangzhou, China).
# To evaluate the regulation of BHGZD on the candidate targets in arthritic tissue samples, as well as RAW264.7 and MH7A cells, Western blotting analysis was carried out following the protocol as in our previous studies ([21], [24], [29]). TLR4, phospho-PI3K (p-PI3K), PI3K, p-AKT, p-NFκB-p65, NFκB-p65, NLRP3, ASC, caspase-1, the N-terminal domain of GSDMD (GSDMD-NT), and IL-1β antibodies were used as shown in Supplementary Table S3 . GAPDH (GAPDH Mouse monoclonal antibody, Abcam, Cambridge, UK) and β-actin (Anti-beta-Actin/β-Actin Antibody, Boster Biological Technology, California, USA) were used as loading controls for arthritic tissue samples and cultured cells, respectively.
# as §3, §4, §5, §6, §7, §8, §9
# recombinant TLR4 protein = molecular target: T1, recombinant TLR4 protein (Homo sapiens, UniProt O00206); assay: Microscale thermophoresis (MST) binding assay; settings: 1:1 binding mode, read-out: mean KD, CA–TLR4
# T1 construct: purchased Abcam ab233665
# Method: The binding affinity between recombinant TLR4 protein and CA was measured by a NanoTemper Monolith NT.115 instrument (NanoTemper Technologies, Germany). The K D value was fitted by NanoTemper Monolith affinity software (NanoTemper Technologies, Germany) using 1:1 binding mode. Detailed information on the MST assay is provided in Supplementary Materials Section 12 . […]
# compound was greater than 9.0×106cm/s and 40% which indicated drug-like […]
# Section 11 Surface plasmon resonance (SPR) assay
# SPR binding assays were analyzed with Biacore 8K (Biacore, Cytiva). Materials and reagents used in SPR assays were purchased from Cytiva. […]
# UK) and CA contained in BHGZD was measured by NanoTemper Monolith NT.115 instrument (NanoTemper Technologies, Germany). […]
# After the protein labeling experiment was completed, TLR4 was diluted with binding buffer (20mM HEPES, pH 7.4, 100mM NaCl and 0.005% Tween 20) to ensure that the fluorescence intensity of TLR4 during the MST assay was about 500 RU. […]
# After incubation, the samples were loaded into the premium treated capillaries and measured in NanoTemper Monolith NT.115 instrument (NanoTemper Technologies, Germany). […]
# The pharmacokinetic parameters were calculated by Drug and Statistic software
# [2] = In vivo pharmacokinetic analysis of MG and CA after oral BHGZD (UHPLC-QTRAP-MS/MS); settings: rat plasma after oral BHGZD 21.4 g/kg each day, n = 3
# Method: The pharmacokinetic parameters were calculated by Drug and Statistic software (Shanghai, China). Detailed information on the collection of blood samples and UHPLC-QTRAP-MS/MS conditions is provided in Supplementary Materials Section 13 . […]
# Section 13 Pharmacokinetic analysis […]
# administration of BHGZD, ultra-fast liquid chromatography coupled with triple quadrupole-linear ion trap composite mass spectrometry (UHPLC-QTRAP-MS/MS) system was […]
# Bioanalytical Method Validation issued by Chinese Pharmacopoeia Commission in 2020.
# The pharmacokinetic parameters were calculated by Drug and Statistic software […]
# 1) Collection of blood samples
# Male Lewis rats (n=6, 6-8 weeks-old, 200±20g in weight) were purchased from Beijing Vital River Laboratory Animal Technology Co., Ltd. (SCCK 2016-0006, Beijing, China; n=3 per group, including normal control group and normal control+BHGZD treatment group).
# Diet was prohibited for 12h before the experiment but water was freely available. Blood samples (~0.25mL) were collected from the retinal venous plexus into heparinized 1.5mL polythene tubes before administration and 0, 0.25, 0.5, 1, 2, 3, 4, 6, 8,12 and 24h after administration of BHGZD. The plasma samples were obtained after centrifuging at 12000rpm for 15min, and stored at -20℃ prior to analysis.
# 2) UHPLC-QTRAP-MS/MS conditions
# Quantification analysis were performed on an ultra-high-performance liquid chromatography (Shimadzu Corp., Japan) tandem ion trap quadrupole QTRAP 6500 plus mass spectrometry (AB Sciex, USA). Chromatographic separation was conducted using a Poroshell 120 EC-C18 column (3.0×50mm, 2.7μm) at 40℃. The mobile phase was consisted of 0.1% formic acid–water (v/v, A) and methanol (B) and elution program were:
# Mass spectrometry detector were conducted in negative mode and the detecting parameters were set as follows: curtain gas, 35 psi; collision gas, medium; ionspray voltage, 4500 V; temperature, 550℃; ion source gas 1 and 2, 55psi. Quantitative ion pairs were optimized for MG: m/z 421.2-301.1 (declustering potential: 63V, CE: 30eV) and for […]
# Data acquisition and analysis
# RAW264.7 cells [3] = assay: Cell viability, CCK-8 assay; assay type: cell-based, mouse; settings: 0.21–6.74 ng/ml MG or 0.02–0.52 ng/ml CA treatment alone
# Method: Cell viability was analyzed with the cell counting kit-8 (CCK-8) assay kit (Beyotime Biotechnology, Shanghai, China) as described in Supplementary Materials Section 16 .
# Section 16 Cell proliferation assay
# Cell viability was analyzed with Cell Counting Kit-8 (CCK-8) assay kit (Beyotime Biotechnology, China). Raw264.7 cells were seeded into 96-well plate, and after […]
# solution was added to each well. The absorbance was measured after 4h of incubation at […]
# Section 17 Flow cytometry
# To identify and quantify of pyroptosis population of Raw264.7 cells, FITC Apoptosis Detection kit I staining with both the Annexin V-fluorescein isothiocyanate and propidium iodide (PI, BD Biosciences, San Jose, CA, USA) was used in accordance with manufacturer's guidelines. Briefly, Raw264.7 cells was washed twice with cold PBS and then resuspended in 1×binding buffer at a concentration of 1x10^6 cells/mL. Then, 100µL of the solution (1x10^5 cells) was transferred to a 5 mL culture tube. Subsequently, 5µL of FITC Annexin V and 5µL PI were added into cultured tube, and vortexed and incubated for 15 min at room temperature in the dark. Finally, 400µL 1×binding buffer was added into each tube, and analyzed by flow cytometry (ACEA Bioscience, San Diego, CA, USA) and NovoExpress 1.4.1 software (ACEA Bioscience, San Diego, CA, USA) within 1h.
# [4] = LPS/ATP-induced RAW264.7 cells, all p < 0.05
# [5] = LPS/ATP-induced, BHGZD 28.54 μg/ml, MG 1.69 ng/ml, CA 0.13 ng/ml, 24 h
# [6] = LPS/ATP-induced MH7A cells, all p < 0.05
# T1 sequence (O00206 24-839): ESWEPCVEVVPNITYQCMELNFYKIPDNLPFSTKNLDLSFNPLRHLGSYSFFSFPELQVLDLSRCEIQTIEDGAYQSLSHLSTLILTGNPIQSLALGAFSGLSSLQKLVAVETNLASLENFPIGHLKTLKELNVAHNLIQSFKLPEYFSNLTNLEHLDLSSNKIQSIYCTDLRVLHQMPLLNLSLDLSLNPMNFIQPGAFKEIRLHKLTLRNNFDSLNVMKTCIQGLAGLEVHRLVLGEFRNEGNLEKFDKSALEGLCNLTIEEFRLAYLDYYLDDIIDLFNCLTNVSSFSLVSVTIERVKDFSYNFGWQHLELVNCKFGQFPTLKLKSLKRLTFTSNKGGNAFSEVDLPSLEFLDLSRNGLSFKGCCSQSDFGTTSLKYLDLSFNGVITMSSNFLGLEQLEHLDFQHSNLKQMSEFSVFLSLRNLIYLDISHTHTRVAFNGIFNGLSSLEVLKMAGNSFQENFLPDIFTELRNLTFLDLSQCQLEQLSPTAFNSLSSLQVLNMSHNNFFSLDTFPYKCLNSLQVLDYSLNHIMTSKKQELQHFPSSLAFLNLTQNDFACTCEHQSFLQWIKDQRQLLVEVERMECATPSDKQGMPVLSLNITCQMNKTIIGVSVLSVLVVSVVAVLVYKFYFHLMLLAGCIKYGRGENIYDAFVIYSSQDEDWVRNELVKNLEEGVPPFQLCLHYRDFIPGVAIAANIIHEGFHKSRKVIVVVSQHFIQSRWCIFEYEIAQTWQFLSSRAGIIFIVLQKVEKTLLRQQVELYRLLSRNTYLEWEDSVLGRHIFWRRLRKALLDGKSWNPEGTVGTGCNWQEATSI
structure (smiles),measurement,setting,value
"O=C(O)/C=C/c1ccccc1 [CA, cinnamic acid]",GSDMD-NT,"RAW264.7 cells [1]; LPS/ATP-induced RAW264.7 cells, Western blotting",decreased
same,"expression levels of NLRP3, ASC, and caspase-1",RAW264.7 cells [1]; [4],reduced
same,"levels of IL-1β, IL-18, and LDH release in the supernatant",RAW264.7 cells [1]; [4],reduced
same,PI positive cell rate,"RAW264.7 cells [1]; LPS/ATP-induced, 1.69 ng/ml MG, 0.13 ng/ml CA, 24 h, inferior to BHGZD, all p < 0.05",prominently reduced
same,number of FLICA-positive RAW264.7 cells,RAW264.7 cells [1]; [5],reduced
same,"inhibition on cell pyroptosis induced by LPS/ATP, alone versus combination","RAW264.7 cells [1]; RAW264.7 and MH7A cells, all p < 0.05",weaker than that in the two-BAC combination treatment group
same,GSDMD-NT,"MH7A cells; LPS/ATP-induced MH7A cells, Western blotting",decreased
same,"expression levels of NLRP3, ASC, and caspase-1",MH7A cells; [6],reduced
same,"levels of IL-1β, IL-18, and LDH release in the supernatant",MH7A cells; [6],reduced
same,number of TUNEL-positive MH7A cells,MH7A cells; [5],reduced
same,Kd,recombinant TLR4 protein,211 µM
same,t1/2z,[2]; apparent elimination half-life,1.65 ± 1.34 h
same,Cmax,"[2]; male, Lewis, rat, plasma, po, 21.4 g/kg, non-compartment model, read-out: Cmax",120 ± 25.9 ng/mL
same,AUC(0-t),"[2]; male, Lewis, 0-24 h",102 ± 67.8 ng·h/mL
same,AUC(0-inf),"[2]; male, Lewis",144 ± 30.4 ng·h/mL
same,MRT last,"[2]; male, Lewis, read-out: MRT(0-t)",1.93 ± 0.35 h
same,MRT inf,"[2]; male, Lewis, read-out: MRT(0-∞)",2.26 ± 0.8 h
same,cell viability (CCK8),RAW264.7 cells [3],no cell toxicity
